Data taken from patent US12605653B2, “Anionic switchable hydrophilicity solvents” (QUEEN'S UNIVERSITY AT KINGSTON, priority 2022, dated 2026).

Assay: Evaluation of the switching behaviour of ASHS systems (carboxylic acid/base/water) under air and 1 bar of CO2
Assay type: physicochemical
Settings: for Behaviour of the system after CO2 addition: 1 bar CO2; for Behaviour of the system after CO2 addition / pH under 1 bar of CO2 / pH under air: 20° C.; for Phase behaviour upon addition of 1 bar of CO2: base Jeffamine D-230, TEA, DMEA or 3DMAP, base:acid mole ratio 1:1, water:acid mass ratio 15:1 and other ratios; for Behaviour of the system: base NaOH
Description: Base solutions were prepared by combining the desired base and water (mass for components measured in an analytical scale) into either a 10 or 25 mL graduated cylinder (containing a magnetic stir bar) depending on the final volume of the mixture obtained. The carboxylic acid (mass measured using an analytical balance prior to addition) being studied was added to the base solution, and the mixture was mixed with the help of a magnetic stir plate. The amount of base and water used were selected based on the acid:base:water ratio desired. Experiments were carried out using stoichiometric and substoichiometric amounts of the base relative to the number of mols of acid added. In addition, the quantity of water used was adjusted based on the acid:water mass ratio desired. A typical experiment would contain 1 g of the carboxylic acid; between 0.4 and 1 mol of base per mol of acid; and a water mass varying from 1 to 9.5 g.
During a typical experiment, CO2 would be added for approximately 2 h at atmospheric pressure. At the end of the 2 h, the sparge tube would be removed, and the number and volume of the phases obtained would be recorded. The pH was once again recorded. For mixtures with only 1 phase, the pH of that phase was recorded. While for mixtures with 2 phases, the pH of the aqueous phase was recorded.
In the systems in which the base:acid mole ratio and the water:acid mass ratio were being studied, a slight modification from this method was used. The acid being tested (1 g) was mixed with 1 g of water and the required amount of NaOH (based on the acid:base molar ratio desired) to prepare the mixture. […]
The base solution was then added to the carboxylic acid, and the next steps followed the procedure previously described.

[1] = base 3DMAP, base:acid mole ratio 0.60:1, H2O:acid mass ratio 2.5:1
[2] = base DMEA, base:acid mole ratio 0.55:1, H2O:acid mass ratio 2.5:1
[3] = base Jeffamine D-230 (two moles acid per mole D-230), H2O:acid mass ratio 12:1
[4] = base Jeffamine D-230 (two moles acid per mole D-230), H2O:acid mass ratio 15:1, partial = acid recovered smaller than mass added
[5] = base Jeffamine D-230 (two moles acid per mole D-230), H2O:acid mass ratio 15:1
[6] = base MDEA, base:acid mole ratio 0.55:1, H2O:acid mass ratio 2.5:1
[7] = base TEA, base:acid mole ratio 0.60:1, H2O:acid mass ratio 2.5:1
[8] = substoichiometric aqueous NaOH, 0.6 to 0.7 equivalents of base
[9] = base 3DMAP, base:acid mole ratio 0.55:1, H2O:acid mass ratio 2.5:1
[10] = base DMEA, base:acid mole ratio 0.60:1, H2O:acid mass ratio 2.5:1
[11] = base Jeffamine D-230 (two moles acid per mole D-230), H2O:acid mass ratio 1:1-9.5:1
[12] = base MDEA, base:acid mole ratio 0.65:1, H2O:acid mass ratio 2.5:1
[13] = base TEA, MDEA, DMEA or 3-DMAP, base:acid mol ratio 1:1, H2O:acid mass ratio 12:1-15:1
[14] = base TEA, base:acid mole ratio 0.65:1, H2O:acid mass ratio 2.5:1

CCCC(CCC)C(=O)O [PPA, 2-propylpentanoic acid]
Behaviour of the system after CO2 addition (base 3DMAP, base:acid mole ratio 0.60:1, H2O:acid mass ratio 2.5:1, threshold 50 vol % recovered): Phase separation above 50
pH under 1 bar of CO2 [1]: 6.70
pH under air [1]: 6.63
Behaviour of the system after CO2 addition (base DMEA, base:acid mole ratio 0.55:1, H2O:acid mass ratio 2.5:1, threshold 50 vol % recovered): Phase separation above 50
pH under 1 bar of CO2 [2]: 6.78
pH under air [2]: 6.70
Behaviour of the system after CO2 addition (base Jeffamine D-230 (two moles acid per mole D-230), H2O:acid mass ratio 12:1, partial = acid recovered smaller than mass added): Partial phase separation
pH under 1 bar of CO2 [3]: 6.84
pH under air [3]: 7.86
Behaviour of the system after CO2 addition [4]: Partial phase separation
pH under 1 bar of CO2 [5]: 6.73
pH under air [5]: 8.43
Phase behaviour upon addition of 1 bar of CO2 (MDEA): no phase separation was observed
Behaviour of the system after CO2 addition (base MDEA, base:acid mole ratio 0.55:1, H2O:acid mass ratio 2.5:1, threshold 50 vol % recovered): Phase separation above 50
pH under 1 bar of CO2 [6]: 6.69
pH under air [6]: 6.59
Behaviour of the system (carboxylic acid:H2O mass ratio 1:2.5, carboxylic acid:NaOH mol ratio 1:0.8): Switchable
Behaviour of the system after CO2 addition [7]: No phase separation
pH under 1 bar of CO2 [7]: 6.72
pH under air [7]: 6.51
Phase behaviour upon addition of CO2 [8]: phase separation was observed
Phases under air [8]: one phase

CCCCCCCCC(CCCCCC)C(=O)O (centres unmarked) [2-hexyldecanoic acid]
Behaviour of the system (carboxylic acid:H2O mass ratio 1:12, carboxylic acid:NaOH mol ratio 1:1): Biphasic under air

CCCCCC(=O)O [Hexanoic acid, hexanoic acid]
Behaviour of the system (carboxylic acid:H2O mass ratio 2:1, carboxylic acid:NaOH mol ratio 1:0.6): Monophasic under

CCCCCCCC(=O)O [Octanoic acid, octanoic acid, reference compound]
Behaviour of the system after CO2 addition (base 3DMAP, base:acid mole ratio 0.55:1, H2O:acid mass ratio 2.5:1, threshold 50 vol % recovered): Phase separation below 50
pH under 1 bar of CO2 [9]: 6.46
pH under air [9]: 6.34
Behaviour of the system after CO2 addition (base DMEA, base:acid mole ratio 0.60:1, H2O:acid mass ratio 2.5:1, threshold 50 vol % recovered): Phase separation below 50
pH under 1 bar of CO2 [10]: 6.71
pH under air [10]: 6.86
Behaviour of the system after CO2 addition [11]: No phase separation
pH under 1 bar of CO2 [11]: 6.85-7.60
pH under air [11]: 7.60-7.90
Behaviour of the system after CO2 addition [4]: Partial phase separation^b
pH under 1 bar of CO2 [5]: 6.70
pH under air [5]: 7.55
Phase behaviour upon addition of 1 bar of CO2 (MDEA): no phase separation was observed
Behaviour of the system after CO2 addition [12]: No phase separation
pH under 1 bar of CO2 [12]: 6.65
pH under air [12]: 6.69
Behaviour of the system (carboxylic acid:H2O mass ratio 1:1.5 and 1:2.5, carboxylic acid:NaOH mol ratio 1:0.9): Switchable
Behaviour of the system after CO2 addition [13]: No phase separation
pH under 1 bar of CO2 [13]: 6.70-6.90
pH under air [13]: 7.60-7.70
Behaviour of the system after CO2 addition [14]: No phase separation
pH under 1 bar of CO2 [14]: 6.75
pH under air [14]: 6.68

CCCCC/C=C\C/C=C\CCCCCCCC(=O)O [Linoleic acid, linoleic acid]
Behaviour of the system (carboxylic acid:H2O mass ratio 1:5, carboxylic acid:NaOH mol ratio 1:1): Biphasic under air

CCCCCCCCC(=O)O [Nonanoic acid, nonanoic acid]
Behaviour of the system (carboxylic acid:H2O mass ratio 1:2.5, carboxylic acid:NaOH mol ratio 1:0.7): Switchable

C=CCCCCCCCCC(=O)O [10-undecenoic acid]
Behaviour of the system (carboxylic acid:H2O mass ratio 1:2.5, carboxylic acid:NaOH mol ratio 1:1): Switchable

CCCCCCCC/C=C\CCCCCCCC(=O)O [Oleic acid, oleic acid]
Behaviour of the system (carboxylic acid:H2O mass ratio 1:10, carboxylic acid:NaOH mol ratio 1:1): Biphasic under air

CC(C(=O)O)c1ccccc1 (centres unmarked) [2-phenylpropionic acid]
Behaviour of the system (carboxylic acid:H2O mass ratio 1:2.5, carboxylic acid:NaOH mol ratio 1:0.5 and 1:0.6): Monophasic under

CC(C)C(=O)O [Isobutyric acid, isobutyric acid]
Behaviour of the system (carboxylic acid:H2O mass ratio 1:2.5, carboxylic acid:NaOH mol ratio 1:0.6): Monophasic under
